Where a SMILES comes first, the peptide text is derived from it. [ ]: non-standard residue; d: D form. The star is where a group is joined. Dansyl = CN(C)c1cccc2c(S(=O)(=O)*)cccc12

The values below come from patent publication US4900658A, “Chromophoric peptides for detecting peptidylglycine-α-amidizing monooxygenase” (Hoechst Aktiengesellschaft, priority 1986, dated 1990).

For this test, the target named is peptidylglycine-α-amidizing monooxygenase (PAM) (Bos taurus, UniProt P10731). The note with it: after 3 hours.
peptidylglycine-α-amidizing monooxygenase (PAM), sequence (P10731 31-972): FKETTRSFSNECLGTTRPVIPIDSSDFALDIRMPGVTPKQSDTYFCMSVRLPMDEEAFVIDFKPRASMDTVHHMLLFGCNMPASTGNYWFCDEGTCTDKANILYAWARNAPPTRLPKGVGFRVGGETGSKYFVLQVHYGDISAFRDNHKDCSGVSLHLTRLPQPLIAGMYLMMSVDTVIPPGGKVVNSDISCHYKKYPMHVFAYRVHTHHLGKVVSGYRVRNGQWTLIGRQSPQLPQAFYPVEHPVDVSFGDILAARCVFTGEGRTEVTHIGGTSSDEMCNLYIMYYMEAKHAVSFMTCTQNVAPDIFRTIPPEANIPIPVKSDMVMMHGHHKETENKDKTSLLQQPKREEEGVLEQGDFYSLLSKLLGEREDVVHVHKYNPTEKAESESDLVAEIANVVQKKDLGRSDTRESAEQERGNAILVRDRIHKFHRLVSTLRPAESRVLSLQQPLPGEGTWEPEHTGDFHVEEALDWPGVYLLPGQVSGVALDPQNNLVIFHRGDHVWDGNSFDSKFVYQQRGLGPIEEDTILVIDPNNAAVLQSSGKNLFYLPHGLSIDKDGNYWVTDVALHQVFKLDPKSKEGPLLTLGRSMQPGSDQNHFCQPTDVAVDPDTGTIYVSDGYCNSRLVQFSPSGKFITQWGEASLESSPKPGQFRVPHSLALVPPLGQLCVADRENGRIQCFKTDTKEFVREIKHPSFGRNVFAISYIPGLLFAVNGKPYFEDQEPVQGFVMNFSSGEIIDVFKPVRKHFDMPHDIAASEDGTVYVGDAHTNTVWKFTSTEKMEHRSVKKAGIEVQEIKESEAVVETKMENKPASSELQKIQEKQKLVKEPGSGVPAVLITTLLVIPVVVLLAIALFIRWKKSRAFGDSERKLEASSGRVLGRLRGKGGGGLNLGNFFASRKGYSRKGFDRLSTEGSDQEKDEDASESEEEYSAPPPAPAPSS

Experimental: The tests with the substrate, according to the invention, of the formula I (R=Gly--OH) and with the comparison substance of the formula I (R=NH2) were carried out both with the crude fractions and also with the enriched fractions.
Procedure for enzyme assay using the substrate of the formula I (R=Gly--OH) and the reference substance of the formula II (R=NH2)
The enzyme tests are carried out in a buffer of pH 7.4. The aqueous buffer is composed of the buffer substance N-[tris-(hydroxymethyl)-methyl]-2-amino-ethanesulfonic acid (100 mM), CuSO4 (3 μM), peptide substrate of the formula I (R=Gly--OH) (50 μM) and catalase from bovine liver (100 μg/ml). 100 μl of this buffer solution are incubated with 100 μl of the solution containing PAM, and, after 3 hours at 37° C., the reaction is stopped by adding 700 μl of CH2 Cl2. […] After the mixture has been centrifuged and the organic phase removed, the latter is evaporated in a vacuum centrifuge and the residue is again taken up in a constant volume of CH2 Cl2. All operations are carried out with exclusion of light in order to prevent photo-reactions of the light-sensitive substrate. […] Quantification of the resulting amide of the formula I (R=NH2) by means of a thin layer scanner is made possible by simultaneously applying the peptide amide of the formula II in various concentrations as a reference.

Take `C[C@@H](NS(=O)(=O)c1cccc2c(N(C)C)cccc12)C(=O)N1CCC[C@H]1C(=O)NCC(=O)O` [DIS-D-Ala--Pro--Gly--OH, DIS--D--Ala--Pro--Gly--OH] (Dansyl-[dA]-Pro-Gly-OH): the “Share of the substrate reacted” value is on record as “approx. 5%”.
